Several values for one entry are separate records, joined by “and”; a condition that tells them apart may be missing. Equal entries are not always repeated.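 In this assay, cells in 96-well plates receive the compound at five concentrations for 48 hours. Endpoints are linearly interpolated between the surrounding concentrations. Here, GI50 denotes the concentration required for 50% inhibition of growth. At the TGI there is no net growth.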

Among the test systems are TK-10 renal; T-47D breast; 786-0 renal; A498 renal; RPMI-8226 leukemia; NCI-H522 lung; MCF7 breast; SK-MEL-5 melanoma; BT-549 breast; NCI-H23 lung.
Holding throughout (assay): inhibition of tumour cell growth, NCI panel, 48 h

Consider `Cn1c(N)c(N=Nc2ccc(S(N)(=O)=O)cc2)c(=O)n(C)c1=O`, for which the TGI in the test with TK-10 renal, in the test on T-47D breast, in the test on 786-0 renal, with A498 renal, in the test on RPMI-8226 leukemia and in the test on NCI-H522 lung was greater than 100 µM in each case. Further, the TGI with MCF7 breast, with SK-MEL-5 melanoma, in the test with BT-549 breast and in the test with NCI-H23 lung was greater than 100 µM each time.

Regarding `CC(=O)OC1C(OC/C2=C/C3[C@@H](C(C)C)CC=C(C)[C@@H]3CC(OC(=O)/C=C/c3cn(C)cn3)[C@]3(C)C=C[C@@]2(O)O3)OCC(O)C1O` (stereo partly drawn), the GI50 was 0.465 µM in the test with TK-10 renal; 0.0219 µM with T-47D breast; 0.0441 µM with 786-0 renal; 0.0122 µM in the test on A498 renal; 0.0244 µM in the test with RPMI-8226 leukemia; 0.015 µM in the test with NCI-H522 lung. The GI50 in the test on MCF7 breast was 0.0146 µM; with SK-MEL-5 melanoma it was 0.0165 µM; in the test on BT-549 breast, 0.0129 µM; in the test on NCI-H23 lung, 0.0227 µM. For the same compound, the TGI in the test with TK-10 renal is greater than 50 µM; in the test on T-47D breast, greater than 50 µM; with 786-0 renal, greater than 50 µM; in the test on A498 renal it was 0.106 µM; in the test with RPMI-8226 leukemia it was greater than 50 µM; with MCF7 breast, greater than 50 µM. The TGI in the test on BT-549 breast was 0.136 µM; in the test on NCI-H23 lung, greater than 50 µM.

`C[CH2][Ge]1([CH2]C)[CH2]CC2(CCN(CCCN(C)C)C2)C[CH2]1`: the GI50 in the test on TK-10 renal was 1.72 µM and 1.87 µM; in the test on T-47D breast it was 1.65 µM; with 786-0 renal, 1.43 µM; in the test on A498 renal, 1.64 µM and 1.05 µM; with RPMI-8226 leukemia it was 0.234 µM and 1.47 µM; in the test with NCI-H522 lung it was 1.3 µM and 11.2 µM. For the same compound, the GI50 is 0.99 µM and 2.42 µM with MCF7 breast; 0.444 µM and 1.44 µM with SK-MEL-5 melanoma; 1.69 µM in the test on BT-549 breast; 2.47 µM and 4.11 µM with NCI-H23 lung. The TGI is 3.18 µM and 3.38 µM with TK-10 renal; 3.25 µM in the test on T-47D breast; 2.87 µM in the test with 786-0 renal; 3.26 µM and 1.68 µM in the test on A498 renal; 0.976 µM and 2.52 µM in the test with RPMI-8226 leukemia; 2.88 µM and 24.4 µM in the test with NCI-H522 lung. Moreover, the TGI in the test with MCF7 breast is 2.69 µM and 4.05 µM; with SK-MEL-5 melanoma, 1.13 µM and 2.22 µM; in the test with BT-549 breast it was 3.23 µM; with NCI-H23 lung, 8.19 µM and 8.41 µM.

Consider `COc1ccc(N2CCN(CC(=O)N3CCN(c4nnc(-c5ccc(Cl)cc5)c(-c5ccc(Cl)cc5)n4)CC3)CC2)cc1`, for which the GI50 in the test with TK-10 renal was 9.18 µM; in the test with T-47D breast, 3.64 µM; in the test with 786-0 renal it was 10 µM; with A498 renal, 13.4 µM; with RPMI-8226 leukemia, 6.05 µM; in the test with NCI-H522 lung it was 9.2 µM. Further, the GI50 in the test with MCF7 breast is 3.91 µM; with SK-MEL-5 melanoma it was 5.52 µM; in the test with BT-549 breast it was 4.83 µM; in the test on NCI-H23 lung it was 35.9 µM. In addition, the TGI with TK-10 renal, with T-47D breast, in the test on 786-0 renal, in the test on A498 renal, with RPMI-8226 leukemia and in the test on NCI-H522 lung was greater than 100 µM in each case. For the same compound, the TGI in the test on MCF7 breast is greater than 100 µM; with SK-MEL-5 melanoma, 52.4 µM; in the test on BT-549 breast, greater than 100 µM; in the test with NCI-H23 lung it was greater than 100 µM.

Turning to `COc1ccc(/C=C2\CN(Cc3cn(CCCNc4ccnc5cc(Cl)ccc45)nn3)C/C(=C\c3ccc(OC)cc3)C2=O)cc1`, the GI50 in the test with TK-10 renal was 16.5 µM; in the test with T-47D breast, 21 µM; with 786-0 renal, 14.3 µM; with A498 renal, 2.2 µM; in the test with RPMI-8226 leukemia, 2.22 µM; in the test with NCI-H522 lung, 10.3 µM. The GI50 with MCF7 breast was 2.01 µM; with SK-MEL-5 melanoma it was 10.5 µM; in the test on BT-549 breast, 3.78 µM; with NCI-H23 lung it was 10.8 µM. Besides, the TGI turned out to be 30.1 µM with TK-10 renal; 51.1 µM in the test with T-47D breast; 30.3 µM in the test on 786-0 renal; 32.8 µM with A498 renal; 10.3 µM in the test with RPMI-8226 leukemia; 21.9 µM in the test with NCI-H522 lung. Further, the TGI in the test with MCF7 breast is 10.1 µM; in the test on SK-MEL-5 melanoma it was 22.3 µM; in the test on BT-549 breast, 12.9 µM; in the test with NCI-H23 lung, 34.5 µM.

Regarding `Cc1nc2cc(NC(=O)CN3CCN(CCN4C(=O)c5cccc6cccc(c56)C4=O)CC3)ccc2s1`, the GI50 in the test on TK-10 renal was 7.91 µM; in the test on T-47D breast, 3.07 µM; in the test with 786-0 renal, 5.91 µM; in the test with A498 renal it was 5.63 µM; in the test with RPMI-8226 leukemia, 2.91 µM; with NCI-H522 lung, 3.01 µM. Also, the GI50 was 4.08 µM in the test with MCF7 breast, 2.73 µM in the test with SK-MEL-5 melanoma, 4.86 µM with BT-549 breast and 6.6 µM in the test on NCI-H23 lung. Also, the TGI in the test with TK-10 renal was 21.7 µM; in the test with T-47D breast, 17.9 µM; with 786-0 renal, 19.1 µM; in the test on A498 renal, 38.3 µM; with RPMI-8226 leukemia, 15.2 µM; with NCI-H522 lung, 13.8 µM. Besides, the TGI was 15.5 µM with MCF7 breast, 10.9 µM with SK-MEL-5 melanoma, 24.1 µM in the test on BT-549 breast and 38.2 µM in the test on NCI-H23 lung.

As to `O=C(/C=C/CN1CCCCC1)Nc1cc2c(Nc3ccc(F)c(Cl)c3F)ncnc2cc1OCCOC(F)F`, the GI50 with TK-10 renal was less than 0.01 µM; with T-47D breast it was 0.0535 µM; with 786-0 renal it was 0.781 µM; in the test on A498 renal, 0.299 µM; in the test on RPMI-8226 leukemia, 1.01 µM; with NCI-H522 lung, 0.0493 µM. Moreover, the GI50 in the test with MCF7 breast is 1.35 µM; in the test with SK-MEL-5 melanoma, 1.54 µM; in the test on BT-549 breast it was 1.97 µM; with NCI-H23 lung, 1.67 µM. The TGI stood at 1.36 µM in the test with TK-10 renal; 1.37 µM in the test with T-47D breast; 6.38 µM in the test with 786-0 renal; 2.02 µM with A498 renal; 3.94 µM in the test on RPMI-8226 leukemia; 1.8 µM in the test with NCI-H522 lung. Moreover, the TGI in the test with MCF7 breast worked out at 10.3 µM; in the test with SK-MEL-5 melanoma it was 3.07 µM; with BT-549 breast, 8.62 µM; with NCI-H23 lung, 6.99 µM.

Turning to `CCCCc1ccc(C(N)=O)nc1`, the GI50 in the test on TK-10 renal is greater than 100 µM; in the test on T-47D breast it was greater than 100 µM; with 786-0 renal, greater than 100 µM; in the test with A498 renal, 48.1 µM; with RPMI-8226 leukemia it was greater than 100 µM; in the test with NCI-H522 lung it was greater than 100 µM. The GI50 in the test on MCF7 breast, in the test with SK-MEL-5 melanoma, in the test with BT-549 breast and in the test on NCI-H23 lung was greater than 100 µM in each case. The TGI in the test on TK-10 renal, with T-47D breast, with 786-0 renal, with A498 renal, with RPMI-8226 leukemia and with NCI-H522 lung was greater than 100 µM each time. Further, the TGI in the test on MCF7 breast, with SK-MEL-5 melanoma, with BT-549 breast and in the test with NCI-H23 lung was greater than 100 µM throughout.
